Patent publication US8329645B2, “Polymyxin derivatives and uses thereof” (priority 2008, dated 2012)
Where two headings read alike, the source gives them in different places.

Assays:
[1] = system: E. cloacae ATCC23355; assay: E-test MIC with or without NAB7061 (4 μg/ml), Mueller-Hinton agar; assay type: cell-based, Enterobacter cloacae
Experimental: (§1) MICs were determined by using E-strips (Biodisk Ltd., Solna, Sweden) according to the manufacturer's instructions.
(§2) The strains originated from ATCC (11 strains), CCUG (11 strains), and NCTC (The National Collection of Type Cultures, Colindale, U.K.; 2 strains). Eight strains (the F-strains) were purchased from Mobidiag Ltd., Helsinki, Finland.

[2] = system: Ac. baumannii F264; assay: as above; assay type: cell-based, Acinetobacter baumannii; conditions: for MIC of carbapenem at NAB 7061 concn 0 μg/ml: A. baumannii F264, absence of NAB 7061; for MIC of antibiotic in the presence of 4 μg/ml of NAB 7061: Ac. baumannii F264
Experimental: as §1, §2

[3] = system: Ac. baumannii F263; assay: as above; assay type: cell-based, Acinetobacter baumannii; conditions: for MIC of carbapenem at NAB 7061 concn 0 μg/ml: A. baumannii F263, absence of NAB 7061; for MIC of antibiotic in the presence of 4 μg/ml of NAB 7061: Ac. baumannii F263
Experimental: as §1, §2

[4] = system: Ac. baumannii ATCC19606; assay: as above; assay type: cell-based, Acinetobacter baumannii; conditions: for MIC of carbapenem at NAB 7061 concn 0 μg/ml: A. baumannii ATCC19606, absence of NAB 7061; for MIC of antibiotic in the presence of 4 μg/ml of NAB 7061: Ac. baumannii ATCC19606
Experimental: as §1, §2

[5] = system: P. aeruginosa ATCC 27853; assay: E-test MIC of antibiotics on Mueller Hinton agar containing increasing concentrations of NAB739; assay type: cell-based, Pseudomonas aeruginosa
[6] = system: A. baumannii F264; assay: as above; assay type: cell-based, Acinetobacter baumannii
[7] = system: A. baumannii ATCC19606; assay: as above; assay type: cell-based, Acinetobacter baumannii
[8] = biological target: brush-border membrane (BBM) from the renal cortex; assay: Inhibition of binding of radiolabelled gentamycin to brush-border membrane vesicles; conditions: rat renal cortex BBM vesicles; 20 μM [3H] gentamycin; 60 min at 4° C.
Excerpt: The binding of the compounds according to this invention to isolated brush-border membrane (BBM) from the renal cortex can be measured indirectly by measuring their ability to inhibit the binding of radiolabelled gentamycin to BBM. Accordingly, the compounds according to this invention that have less affinity to BBM than for example polymyxin B inhibit the binding of radiolabelled gentamycin to a lesser degree than does polymyxin B.
BBM was isolated from the renal cortex of male albino rats by using the Mg^2+/EGTA precipitation technique as described by Nagai et al. (2006). The binding of gentamycin was measured, according to the method described by Nagai et al. (2006) by incubating BBM vesicles (20 μl) in 10 mM HEPES (pH 7.5) with 300 mM mannitol in the presence of 20 μM [^3H] gentamycin (American Radiolabeled Chemicals, Inc. (St. Louis, Mo., U.S.A.) with or without the compound to be tested or a positive control. After an incubation of 60 min at 4° C., 1 ml of ice-cold buffer described above was added, and the mixture was filtered through a Millipore filter (0.45 μm; HAWP). The filter was washed with the buffer and the radioactivity remaining in the filter was measured by using a liquid scintillation counter. The IC50 values were determined as in Nagai et al. (2006) using the Hill equation.

[9] = system: E. coli IH3080; assay: E-test MIC with or without NAB7061 (4 μg/ml), Mueller-Hinton agar; assay type: cell-based, Escherichia coli
Experimental: as §1, §2

[10] = system: K. pneumoniae ATCC13883; conditions: K. pneumoniae ATCC13883
Experimental: as §1, §2

[11] = system: E. coli ATCC25922; conditions: E. coli ATCC25922
Experimental: as §1, §2

[12] = rat, Li et al. (2003), identical dosing and administration procedure, cited from earlier work
[13] = system: E. coli IH3080; assay: Sensitization to rifampin: growth inhibition around wells on LB plates containing rifampin; assay type: cell-based, Escherichia coli; conditions: 4 μg of compound
[14] = system: E. coli IH3080; assay: Growth inhibition around wells on LB agar plates; assay type: cell-based, Escherichia coli
Procedure, shortened: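 Growth inhibition of encapsulated E. coli IH3080 (K1:O018) was assessed on LB agar plates. A suspension of about 10^8 cells/ml in 0.9% NaCl, made from an overnight LB agar culture, was spread across the plate surface and the excess removed. After drying, 2 mm wells were drilled, with 0.9% NaCl as control. Following 18 h at 37° C., inhibition zone diameters around wells were converted to areas in square mm.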

[15] = system: Pseudomonas aeruginosa ATCC 27853; assay: Growth inhibition around wells on LB agar plates; assay type: cell-based; conditions: Ps. aeruginosa ATCC 27853
Procedure, shortened: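 Activity against Pseudomonas aeruginosa ATCC 27853 was assessed by agar well diffusion on LB plates. A suspension of about 10^8 cells/ml in 0.9% NaCl was spread over the agar and the excess removed. Once the surface had dried, 2 mm wells were drilled and filled with peptide dissolved in 0.9% NaCl. Plates were incubated 18 h at 37° C, and inhibition zone diameters were converted to areas in square mm.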

[16] = system: A. baumannii ATCC 19606; assay: Sensitization to rifampin: growth inhibition around wells on LB plates containing rifampin; assay type: cell-based, Acinetobacter baumannii; conditions: 4 μg
[17] = system: Acinetobacter baumannii ATCC 19606; assay: Growth inhibition around wells on LB agar plates; assay type: cell-based; conditions: A. baumannii ATCC 19606
[18] = system: Ps. aeruginosa ATCC 27853; assay: Sensitization to rifampin: growth inhibition around wells on LB plates containing rifampin; assay type: cell-based, Pseudomonas aeruginosa; conditions: 4 μg

## COc1c(N2C[C@@H]3CCCN[C@@H]3C2)c(F)cc2c(=O)c(C(=O)O)cn(C3CC3)c12 [Moxifloxacin]
[1]
  Sensitization factor to antibiotic (MIC without / with 4 μg/ml of NAB 7061): 4

## C[C@@H](O)[C@H]1C(=O)N2C(C(=O)O)=C(SCCN=CN)C[C@H]12 [imipenem]
[2]
  MIC of carbapenem at NAB 7061 concn 0 μg/ml: 24 µg/mL
  MIC of antibiotic in the presence of 4 μg/ml of NAB 7061: 6 µg/mL
[3]
  MIC of carbapenem at NAB 7061 concn 0 μg/ml: >32 µg/mL
  MIC of antibiotic in the presence of 4 μg/ml of NAB 7061: 8 µg/mL
[4]
  MIC of carbapenem at NAB 7061 concn 0 μg/ml: 0.38 µg/mL
  MIC of antibiotic in the presence of 4 μg/ml of NAB 7061: 0.38 µg/mL

## C[C@@H](O)[C@H]1C(=O)N2C(C(=O)O)=C(S[C@@H]3CN[C@H](C(=O)N(C)C)C3)[C@H](C)[C@H]12 [meropenem]
[5]; NAB 739 0 μg/ml
  MIC of antibiotic in the presence of NAB739: 0.25 µg/mL
[5]; NAB 739 0.5 μg/ml
  MIC of antibiotic in the presence of NAB739: 0.25 µg/mL
[5]; NAB 739 1 μg/ml
  MIC of antibiotic in the presence of NAB739: 0.25 µg/mL
[5]; NAB 739 2 μg/ml
  MIC of antibiotic in the presence of NAB739: 0.25 µg/mL
[5]; NAB 739 […]
  MIC of antibiotic in the presence of NAB739: 0.25 µg/mL
[6]; NAB 739 0 μg/ml
  MIC of antibiotic in the presence of NAB739: >32 µg/mL
[6]; NAB 739 0.5 μg/ml
  MIC of antibiotic in the presence of NAB739: 1 µg/mL
[6]; NAB 739 1 μg/ml
  MIC of antibiotic in the presence of NAB739: 0.38 µg/mL
[7]; NAB 739 0 μg/ml
  MIC of antibiotic in the presence of NAB739: 1 µg/mL
[7]; NAB 739 0.5 μg/ml
  MIC of antibiotic in the presence of NAB739: 0.25 µg/mL
[7]; NAB 739 1 μg/ml
  MIC of antibiotic in the presence of NAB739: 0.125 µg/mL
[2]
  MIC of carbapenem at NAB 7061 concn 0 μg/ml: 32 µg/mL
  MIC of antibiotic in the presence of 4 μg/ml of NAB 7061: 4 µg/mL
[3]
  MIC of carbapenem at NAB 7061 concn 0 μg/ml: >32 µg/mL
  MIC of antibiotic in the presence of 4 μg/ml of NAB 7061: 6 µg/mL
[4]
  MIC of carbapenem at NAB 7061 concn 0 μg/ml: 1.5 µg/mL
  MIC of antibiotic in the presence of 4 μg/ml of NAB 7061: 0.75 µg/mL

## gentamycin [reference compound]
[8]
  IC50: 90.2 ± 9.7 µM

## COc1cc(Cc2cnc(N)nc2N)cc(OC)c1OC [Trimetoprim]
[9]
  Sensitization factor to antibiotic (MIC without / with 4 μg/ml of NAB 7061): 3
[1]
  Sensitization factor to antibiotic (MIC without / with 4 μg/ml of NAB 7061): 3
[10]
  Sensitization factor to antibiotic (MIC without / with 4 μg/ml of NAB 7061): 2
[11]
  Sensitization factor to antibiotic (MIC without / with 4 μg/ml of NAB 7061): 4

## quinupristin-dalfopristin [Quinupristin-dalfopr.]
[9]
  Sensitization factor to antibiotic (MIC without / with 4 μg/ml of NAB 7061): >21
[1]
  Sensitization factor to antibiotic (MIC without / with 4 μg/ml of NAB 7061): >5
[10]
  Sensitization factor to antibiotic (MIC without / with 4 μg/ml of NAB 7061): 1
[11]
  Sensitization factor to antibiotic (MIC without / with 4 μg/ml of NAB 7061): >21

## Colistin (polymyxin E)
[12]
  clearance: 5.2 ± 0.4 mL/min/kg
  half-life: 1.24 ± 0.22 h
  renal clearance: 0.010 ± 0.008 mL/min/kg
  urinary recovery: 0.18±0.14 % of dose in 24 h
  volume of distribution: 0.496 ± 0.06 L/kg
[12]; listed as polymyxin E (colistin)
  urinary recovery: about 0.18±0.14 % of dose in 24 h

## OA-Thr-Asn-cy[Dab-Dab-DPhe-Leu-Dab-Dab-Thr-] [NAB 746]
[13]; rifampin 0 μg/ml
  growth inhibition around a well in the presence of rifampin: 0 square millimeters
[13]; rifampin 0.1 μg/ml
  growth inhibition around a well in the presence of rifampin: 79 square millimeters
[13]; rifampin 1.0 μg/ml
  growth inhibition around a well in the presence of rifampin: 95 square millimeters
[14]; 4 μg of compound per well
  growth inhibition around a well: 0 square millimeters
[14]; 10 μg of compound per well
  growth inhibition around a well: 13 square millimeters
[15]; 4 μg
  growth inhibition around a well: 0 square millimeters
[15]; 10 μg
  growth inhibition around a well: 20 square millimeters
[16]; rifampin 0 μg/ml
  growth inhibition around a well in the presence of rifampin: 0 square millimeters
[16]; rifampin 0.1 μg/ml
  growth inhibition around a well in the presence of rifampin: 64 square millimeters
[16]; rifampin 0.3 μg/ml
  growth inhibition around a well in the presence of rifampin: 95 square millimeters
[17]; 4 μg
  growth inhibition around a well: 0 square millimeters
[17]; 10 μg
  growth inhibition around a well: 0 square millimeters
[18]; rifampin 0 μg/ml
  growth inhibition around a well in the presence of rifampin: 0 square millimeters
[18]; rifampin 0.1 μg/ml
  growth inhibition around a well in the presence of rifampin: 7 square millimeters
[18]; rifampin 0.3 μg/ml
  growth inhibition around a well in the presence of rifampin: 0 square millimeters

## OA-Thr-Dab-cy[Dab-Dab-DPhe-Leu-Dab-Abu-Thr-] [NAB 717]
[13]; rifampin 0 μg/ml
  growth inhibition around a well in the presence of rifampin: 0 square millimeters
[13]; rifampin 0.1 μg/ml
  growth inhibition around a well in the presence of rifampin: 71 square millimeters
[13]; rifampin 1.0 μg/ml
  growth inhibition around a well in the presence of rifampin: 95 square millimeters
[14]; 4 μg of compound per well
  growth inhibition around a well: 0 square millimeters
[14]; 10 μg of compound per well
  growth inhibition around a well: 0 square millimeters
[15]; 4 μg
  growth inhibition around a well: 0 square millimeters
[15]; 10 μg
  growth inhibition around a well: 0 square millimeters
[16]; rifampin 0 μg/ml
  growth inhibition around a well in the presence of rifampin: 0 square millimeters
[16]; rifampin 0.1 μg/ml
  growth inhibition around a well in the presence of rifampin: 0 square millimeters
[16]; rifampin 0.3 μg/ml
  growth inhibition around a well in the presence of rifampin: 50 square millimeters
[17]; 4 μg
  growth inhibition around a well: 0 square millimeters
[17]; 10 μg
  growth inhibition around a well: 0 square millimeters
[18]; rifampin 0 μg/ml
  growth inhibition around a well in the presence of rifampin: 0 square millimeters
[18]; rifampin 0.1 μg/ml
  growth inhibition around a well in the presence of rifampin: 0 square millimeters
[18]; rifampin 0.3 μg/ml
  growth inhibition around a well in the presence of rifampin: 0 square millimeters

## CC(=O)NC[C@H]1CN(c2ccc(N3CCOCC3)c(F)c2)C(=O)O1 [Linezolid]
[9]
  Sensitization factor to antibiotic (MIC without / with 4 μg/ml of NAB 7061): >8
[1]
  Sensitization factor to antibiotic (MIC without / with 4 μg/ml of NAB 7061): >8
[10]
  Sensitization factor to antibiotic (MIC without / with 4 μg/ml of NAB 7061): >4
[11]
  Sensitization factor to antibiotic (MIC without / with 4 μg/ml of NAB 7061): >11
